Results on 27 compounds are retold here after patent US20260116884A1, “PROTAC CHIMERIC COMPOUND, PREPARATION METHOD THEREFOR AND USE THEREOF” (HANGZHOU ZHONGMEIHUADONG PHARMACEUTICAL CO., LTD., priority 2022, published 2026).

What is called pEC50 is the negative decadic logarithm of the EC50, by convention in mol/L. High values mean a small EC50, low ones a large EC50. A word on the pIC50: it is the IC50 on a negative log10 scale, so that one unit is a factor of ten. Read a high pIC50 as a small IC50. As usually defined, the DC50 is the concentration at which degradation of the target reaches its halfway point. The low end stands for degradation at low concentration, the high end for degradation only at high concentration. Broadly, the Dmax is the greatest extent of degradation seen. A high value points to deep degradation.

SMILES strings stand for the structures. pEC50, pIC50: −log10 of the molar value.

The subject of one experiment is IL2 activation in human PBMC. The experiment can be described thus: IL2 activity assay (ELISA) in human PBMC. It is filed as cell-based. To be noted: CD3/CD28 antibody, 24 h. The procedure:
The compound was diluted with DMSO in a dilution plate, with a maximum starting concentration of 10 μM, 8 concentration gradient points (3-fold dilution), and then added to the 96-well plate along with the addition of 5 µg/ml CD28 antibody. Incubation was performed for 24 h. • (3) The ELISA plate was washed twice with PBS, and an ELISA dilution was added at 100 µl/well. Then 100 μl of the standard and the incubated samples obtained in step 2 were added separately, and incubated for 2 h at room temperature. • (4) Each well was washed 3 times by adding with 400 μl washing buffer per well, and was finally blotted to dryness with a clean absorbent paper. • (5) 200 μl of the IL2 conjugate was added per well, covered with a fresh tape, and incubated for 2 h at room temperature. Step (4) was repeated. • (6) 200 μl of the substrate was added per well under the protection from light. The plate was incubated at room temperature for 20 min. • (7) 50 μL of a stop solution was added per well. The color of the wells should be from blue to yellow. Signals at […] were read by a microplate reader, and the signal intensity was used to characterize the activity level of IL2. EC50 values were obtained by fitting using the Prism software.
In general terms: An ELISA detects its analyte on a solid surface through an enzyme-linked reagent.
`CCN1CCC(n2cc(-c3c[nH]c4ncc(-c5ccc(N6CCC(CC7CCCN(C(=O)c8ccc(Cl)c(N9CCC(=O)NC9=O)c8)CC7)CC6)cc5)nc34)cn2)CC1` (stereo not shown) [Compound C122] had a pEC50 of 7.22.
`CCN1CCC(n2cc(-c3c[nH]c4ncc(-c5ccc(N6CCC(OC7CCN(C(=O)c8ccc(Cl)c(N9CCC(=O)NC9=O)c8)CC7)CC6)cc5)nc34)cn2)CC1` [Compound C131] showed a pEC50 of 7.38.
`CCN1CCC(n2cc(-c3c[nH]c4ncc(-c5ccc(N6CCC(OC7CCN(C(=O)c8ccc(Cl)c(N9CCC(=O)NC9=O)c8)CC7)CC6)c(C)c5)nc34)cn2)CC1` [Compound C132]: the pEC50 is 7.46.
For `CCN1CCC(n2cc(-c3c[nH]c4ncc(-c5ccc(N6CCC(OC7CCN(C(=O)c8ccc(Cl)c(N9CCC(=O)NC9=O)c8)CC7)CC6)c(F)c5)nc34)cn2)CC1` [Compound C134], the negative logarithm of the EC50 (pEC50) was 7.38.
Still for that read-out and setting: under `CCN1CCC(n2cc(-c3c[nH]c4ncc(-c5ccc(N6CCC(CC7CCN(C(=O)c8ccc(Cl)c(N9CCC(=O)NC9=O)c8)CC7)CC6)c(F)c5)nc34)cn2)CC1` [Compound C135] stands 7.36.
As to `CCN1CCC(n2cc(-c3c[nH]c4ncc(-c5ccc(N6CCC(C)(CN7CCN(C(=O)c8ccc(Cl)c(N9CCC(=O)NC9=O)c8)CC7)CC6)cc5)nc34)cn2)CC1` [Compound C139], the pEC50 is 6.98.

In a further experiment the target is T1, human HPK1 (Homo sapiens, UniProt Q92918). Put plainly: Assay of in vitro HPK1 enzymatic activity (ADP-Glo). To be noted: 7 nM kinase, 20 uM ATP. It is filed as biochemical. As to the method: Compounds were evaluated for their ability to inhibit human HPK1 by IC50 determination using the ADP-Glo method to measure the kinase activity.
T1 sequence (Q92918 whole entry): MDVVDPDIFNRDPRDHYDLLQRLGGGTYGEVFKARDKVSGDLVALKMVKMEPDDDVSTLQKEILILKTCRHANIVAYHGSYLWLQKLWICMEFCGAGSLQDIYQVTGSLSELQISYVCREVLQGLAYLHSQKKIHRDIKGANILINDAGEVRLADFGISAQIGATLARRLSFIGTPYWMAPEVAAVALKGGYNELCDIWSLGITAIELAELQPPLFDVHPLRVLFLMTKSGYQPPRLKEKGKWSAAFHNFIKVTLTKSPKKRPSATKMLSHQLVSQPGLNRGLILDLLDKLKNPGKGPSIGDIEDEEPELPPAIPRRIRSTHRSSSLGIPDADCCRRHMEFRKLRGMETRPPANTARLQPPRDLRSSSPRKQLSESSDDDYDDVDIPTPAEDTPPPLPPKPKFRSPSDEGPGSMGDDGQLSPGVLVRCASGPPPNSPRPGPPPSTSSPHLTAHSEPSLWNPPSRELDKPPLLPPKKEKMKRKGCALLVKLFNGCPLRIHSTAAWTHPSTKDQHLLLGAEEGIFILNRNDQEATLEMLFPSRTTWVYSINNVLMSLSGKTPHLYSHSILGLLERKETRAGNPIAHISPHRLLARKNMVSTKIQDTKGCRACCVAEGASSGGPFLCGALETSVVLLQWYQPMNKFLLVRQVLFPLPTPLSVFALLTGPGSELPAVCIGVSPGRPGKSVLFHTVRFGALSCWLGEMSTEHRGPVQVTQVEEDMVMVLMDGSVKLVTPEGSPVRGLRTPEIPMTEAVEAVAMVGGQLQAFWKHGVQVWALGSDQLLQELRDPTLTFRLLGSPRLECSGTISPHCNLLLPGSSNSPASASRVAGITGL
Buffer conditions of the enzyme: 50 mM Hepes (pH 7.5), 10 mM MgCl2, 1 mM EGTA, 0.01% Brij35, 2 mM DTT.
Preparation of the Kinase and substrate mixture: the working concentration of the kinase in the HPK1 reaction solution was 7 nM and the working concentration of ATP was 20 uM.
The compound was diluted with DMSO in a dilution plate, with a maximum starting concentration of 1 uM and 10 concentration gradient points (4-fold dilution).
Each of the above 10 concentration gradient points of the compound was then diluted 50-fold into the kinase reaction buffer and shaken on a shaker for 20 min. The kinase was prepared in an enzyme reaction buffer and 2 μl of the HPK1 kinase was added per well of the reaction plate at a HPK1 kinase concentration of 7 nM.
1 μl of diluted compound in the buffer was added per well, and the plate was sealed with a plate sealing film, centrifuged at 1000 g for 30 seconds, and left at room temperature for 10 minutes. An ATP solution was prepared with an enzyme reaction buffer and 2 μl of the ATP solution was added to the reaction plate (the working concentration of ATP was 20 uM). The plate was sealed with a plate sealing film, centrifuged at 1000 g for 30 seconds, and reacted at room temperature for 60 minutes. 4 μL of ADP-Glu was transferred to a 384 reaction plate, centrifuged at 1000 rpm/min for 1 min, and incubated at 25° C. for 40 min. 8 μL of the Detection solution was transferred to a 384 reaction plate, centrifuged at 1000 rpm/min for 1 min, and incubated at 25° C. for 40 min. The RLU (Relative luminescence unit) signal was read using a BMG microplate reader, and the signal intensity was used to characterize the activity level of the kinase.
The kinase activity data was expressed by comparing the kinase activity of the test compound and the blank group (containing only DMSO), and the IC50 value was obtained by curve fitting using the Prism software (GraphPad7.0).
`CCN1CCC(n2cc(-c3c[nH]c4ncc(-c5cnc(OCCNC(=O)c6cccc(N7CCC(=O)NC7=O)c6)c(C)c5)nc34)cn2)CC1` [Compound C016] gave a pIC50 of 7.82.
For the compound `CCN1CCC(n2cc(-c3c[nH]c4ncc(-c5cnc(OC6CCN(C(=O)c7cccc(N8CCC(=O)NC8=O)c7)CC6)c(C)c5)nc34)cn2)CC1` [Compound C019], the pIC50 was 8.70.
Compound `CCN1CCC(n2cc(-c3c[nH]c4ncc(-c5ccc(N6CCN(CC7CCN(C(=O)c8ccc(Cl)c(N9CCC(=O)NC9=O)c8)CC7)CC6)nc5)nc34)cn2)CC1` [Compound C020] had a pIC50 of 8.26.
For the compound `CCN1CCC(n2cc(-c3c[nH]c4ncc(-c5ccc(OCCN6CCC(NC(=O)c7ccc(Cl)c(N8CCC(=O)NC8=O)c7)CC6)nc5)nc34)cn2)CC1` [Compound C023], the pIC50 was 8.19. This pIC50 and that of the compound before are within 0.2 log units of each other.
Still for that read-out and setting: under `CCN1CCC(n2cc(-c3c[nH]c4ncc(-c5ccc(N6CCN(C(=O)CCOCCNc7cccc8c7C(=O)N(C7CCC(=O)NC7=O)C8=O)CC6)nc5)nc34)cn2)CC1` (stereo not shown) [Compound C025] stands 8.06; under `CCN1CCC(n2cc(-c3c[nH]c4ncc(-c5ccc(N6CCN(C(=O)CCCCCNc7cccc8c7C(=O)N(C7CCC(=O)NC7=O)C8=O)CC6)nc5)nc34)cn2)CC1` (stereo not shown) [Compound C026], 8.80.
As for `CCN1CCC(n2cc(-c3c[nH]c4ncc(-c5ccc(N6CCN(C7CCC(NC(=O)c8ccc(Cl)c(N9CCC(=O)NC9=O)c8)CC7)CC6)nc5)nc34)cn2)CC1` (stereo not shown) [Compound C027], the negative logarithm of the IC50 (pIC50) is 9.05.
On to `CCN1CCC(n2cc(-c3c[nH]c4ncc(-c5ccc(OCCNC6CCC(NC(=O)c7ccc(Cl)c(N8CCC(=O)NC8=O)c7)CC6)nc5)nc34)cn2)CC1` (stereo not shown) [Compound C028], for which the pIC50 was 8.62.
The same measure, in the same setting: under `CCN1CCC(n2cc(-c3c[nH]c4ncc(-c5ccc(N6CCN(C7CCC(NC(=O)c8ccc(Cl)c(N9CCC(=O)NC9=O)c8)CC7)CC6)cc5)nc34)cn2)CC1` (stereo not shown) [Compound C029] stands 8.80.
Turning to `CCN1CCC(n2cc(-c3c[nH]c4ncc(-c5ccc(N6CCN(C7CC8(CCN(C(=O)c9ccc(Cl)c(N%10CCC(=O)NC%10=O)c9)CC8)C7)CC6)cc5)nc34)cn2)CC1` [Compound C030], the pIC50 was 9.70.
For `CCN1CCC(n2cc(-c3c[nH]c4ncc(-c5ccc(OCCNC(=O)c6ccc(Cl)c(N7CCC(=O)NC7=O)c6)nc5)nc34)cn2)CC1` [Compound C033], the pIC50 is 8.12.
`CCN1CCC(n2cc(-c3c[nH]c4ncc(-c5ccc(OCCNC(=O)c6ccc(Cl)c(N7CCC(=O)NC7=O)c6)c(C)c5)nc34)cn2)CC1` [Compound C034] gave a pIC50 of 8.92.
`CCN1CCC(n2cc(-c3c[nH]c4ncc(-c5ccc(OCCNC(=O)c6ccc(Cl)c(N7CCC(=O)NC7=O)c6)cc5)nc34)cn2)CC1` [Compound C035] gave a negative logarithm of the IC50 (pIC50) of 8.60.
Take `CCN1CCC(n2cc(-c3c[nH]c4ncc(-c5cnn(C6CCN(C7CCC(NC(=O)c8ccc(Cl)c(N9CCC(=O)NC9=O)c8)CC7)CC6)c5)nc34)cn2)CC1` (stereo not shown) [Compound C036]: the negative-log IC50 (pIC50) is 8.43.
The same measure, in the same setting: then `CCN1CCC(n2cc(-c3c[nH]c4ncc(-c5ccc(OCCCCNC(=O)c6ccc(Cl)c(N7CCC(=O)NC7=O)c6)nc5)nc34)cn2)CC1` [Compound C038], with 7.66; and `CCN1CCC(n2cc(-c3c[nH]c4ncc(-c5ccc(OCCCNC(=O)c6ccc(Cl)c(N7CCC(=O)NC7=O)c6)c(C)c5)nc34)cn2)CC1` [Compound C039], with 8.85; and `CCN1CCC(n2cc(-c3c[nH]c4ncc(-c5ccc(OCC(C)(C)CNC(=O)c6ccc(Cl)c(N7CCC(=O)NC7=O)c6)nc5)nc34)cn2)CC1` [Compound C041], with 7.84.
The same measure, in the same setting: then `CCN1CCC(n2cc(-c3c[nH]c4ncc(-c5ccc(OCCCNC(=O)c6cccc(N7CCC(=O)NC7=O)c6)c(C)c5)nc34)cn2)CC1` [Compound C042], with 8.68; and `CCN1CCC(n2cc(-c3c[nH]c4ncc(-c5cnc(OC(C)CNC(=O)c6ccc(Cl)c(N7CCC(=O)NC7=O)c6)c(C)c5)nc34)cn2)CC1` (stereo not shown) [Compound C043], with 7.56; and `CCN1CCC(n2cc(-c3c[nH]c4ncc(-c5ccc(OC(C)CNC(=O)c6ccc(Cl)c(N7CCC(=O)NC7=O)c6)nc5)nc34)cn2)CC1` (stereo not shown) [Compound C044], with 7.30.
Consider `CCN1CCC(n2cc(-c3c[nH]c4ncc(-c5cnc(OCCN(C)C(=O)c6ccc(Cl)c(N7CCC(=O)NC7=O)c6)c(C)c5)nc34)cn2)CC1` [Compound C045], for which the negative-log IC50 (pIC50) is 8.29.

A further experiment concerns the target T1, human HPK1. The experiment can be described thus: HPK1 protein degradation assay (WB) in RAMOS cell line. It is filed as cell-based. Also on record: The RAMOS cell line was selected as the degradation cell line; endogenous in cells; host or cells: RAMOS. To be noted: RAMOS cells, 16 h, Western blot. The procedure:
Degradation of HPK1 proteins and DC50/Dmax were determined by the WB method in order to evaluate the in vitro degradative ability of the compound.
The RAMOS cell line was selected as the degradation cell line. Incubation Conditions: RMPI 1640 culture medium supplemented with 10% FBS, 37° C., 5% CO2.
• (1) Plating cells: in a 6 cm dish with 4 ml of the culture medium, cells plated at 2×10^6 cells/dish. • (2) Drug addition: the compound (stock solution concentration: 10 mM) was diluted with DMSO in a dilution plate, with a maximum starting concentration of 10 μM and 7 concentration gradient points (3-fold dilution). 4 μl of each diluted solution was taken, added to a dish, and incubated for 16 h. • (3) Cells were harvested, added with a lysis buffer, and centrifuged at 12000 rpm/min for 20 min. The supernatant was collected. After quantification using a BCA quantification kit, 5× loading buffer was added to denature for 10 min. • (4) 10 μg of denatured protein was added to the SDS-PAGE gel. After electrophoresis and membrane transfer, the plate was blocked with 5% BSA for 1 h, incubate with the primary antibody at 4° C. overnight. After washing off the primary antibody, the secondary antibody was added, incubated at room temperature for 1 h, and washed off.
Imaging: the membranes were scanned with a two-color fluorescence imaging system.
For orientation: A western blot detects proteins with antibodies after separation by electrophoresis.
Compound `CCN1CCC(n2cc(-c3c[nH]c4ncc(-c5ccc(N6CCC(OC7CCN(C(=O)c8ccc(Cl)c(N9CCC(=O)NC9=O)c8)CC7)CC6)cc5)nc34)cn2)CC1` [Compound C131] displayed a DC50 of 386 nM and a Dmax of 52%.
For the compound `CCN1CCC(n2cc(-c3c[nH]c4ncc(-c5ccc(N6CCC(OC7CCN(C(=O)c8ccc(Cl)c(N9CCC(=O)NC9=O)c8)CC7)CC6)c(C)c5)nc34)cn2)CC1` [Compound C132], the DC50 came to 29.3 nM and the Dmax was found to be 73%.
Regarding `CCN1CCC(n2cc(-c3c[nH]c4ncc(-c5ccc(N6CCC(OC7CCN(C(=O)c8ccc(Cl)c(N9CCC(=O)NC9=O)c8)CC7)CC6)c(F)c5)nc34)cn2)CC1` [Compound C134], the half-maximal degradation concentration (DC50) was determined as 7.22 nM and the Dmax was 78%.
With `CCN1CCC(n2cc(-c3c[nH]c4ncc(-c5ccc(N6CCC(CC7CCN(C(=O)c8ccc(Cl)c(N9CCC(=O)NC9=O)c8)CC7)CC6)c(F)c5)nc34)cn2)CC1` [Compound C135], the DC50 came to 176 nM and the greatest degradation seen (Dmax) was 63%.
In turn, `CCN1CCC(n2cc(-c3c[nH]c4ncc(-c5ccc(N6CCC(C)(CN7CCN(C(=O)c8ccc(Cl)c(N9CCC(=O)NC9=O)c8)CC7)CC6)cc5)nc34)cn2)CC1` [Compound C139] gave a DC50 of 52.4 nM and a maximal degradation (Dmax) of 80.9%.
